The values that follow come from patent US12084419B2, “Cell metabolism modulating compounds and uses thereof” (CRESCENTA BIOSCIENCES, priority 2020, dated 2024).

The assay deals with T1, His6 tagged human recombinant FABP4 (Homo sapiens, UniProt P15090).
T1 construct: purchased Cayman Chemicals 10009549
Kind of assay: FABP4 TR-FRET assay: displacement of BODIPY FL C12 fatty acid. Particulars: triplicates, inhibition of BODIPY FL C12 binding; for inhibition at 1 µM: 1 μM compound; for inhibition at 10 µM: 10 μM compound. In short, it runs like this:
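TR-FRET with a Tb anti-His6 antibody donor and BODIPY FL C12 as acceptor; compounds came from 0.362 and 0.0362 mM DMSO stocks. Protein (83 nM) and antibody (49.6 nM) solutions were premixed 30 min on ice in 25 mM Tris pH 7.4 with γ-globulins, NP-40 and DTT. Incubation was 10 min at room temperature; inhibition came from the 520/615 nm ratio.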

T1 sequence (P15090 whole entry): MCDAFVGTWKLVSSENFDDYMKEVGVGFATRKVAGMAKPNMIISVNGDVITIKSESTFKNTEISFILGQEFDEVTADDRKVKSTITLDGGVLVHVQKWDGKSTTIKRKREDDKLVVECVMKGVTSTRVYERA

Broadly, the inhibition is how much of the control response was suppressed. With `CCC1CCCc2c1n(Cc1cccc(C(=O)O)c1)c1c(C(=O)O)cccc21` (stereo not shown) [9-[(3-carboxyphenyl)methyl]-1-ethyl-2,3,4,9-tetrahydro-1H-carbazole-8-carboxylic acid], the inhibition at 1 µM amounted to 39.6% and the inhibition at 10 µM was found to be 78.5%. Take `CCC1CCc2c(n(Cc3cccc(C(=O)O)c3)c3c(C(=O)O)cccc23)C1` (stereo not shown) [9-[(3-carboxyphenyl)methyl]-2-ethyl-2,3,4,9-tetrahydro-1H-carbazole-8-carboxylic acid]: the inhibition at 1 µM amounted to 23.5% and the inhibition at 10 µM is 69.2%. On the same counts, the results for `CCCCCCC1CCc2c(n(Cc3cccc(C(=O)O)c3)c3c(C(=O)O)cccc23)C1` (stereo not shown) [9-[(3-carboxyphenyl)methyl]-2-hexyl-2,3,4,9-tetrahydro-1H-carbazole-8-carboxylic acid] are 23.9% and 73%.

On to `CCC1CCCc2c1c1cccc(C(=O)O)c1n2Cc1cccc(C(=O)O)c1` (stereo not shown) [9-[(3-carboxyphenyl)methyl]-4-ethyl-2,3,4,9-tetrahydro-1H-carbazole-8-carboxylic acid], for which the inhibition at 1 µM stood at 52.1% and the inhibition at 10 µM turned out to be 85.4%.

Take `CCCCCOC1CCCc2c1n(Cc1cccc(C#N)c1)c1c(C(=O)O)cccc21` (stereo not shown) [9-[(3-cyanophenyl)methyl]-1-(pentyloxy)-2,3,4,9-tetrahydro-1H-carbazole-8-carboxylic acid]: the inhibition at 1 µM was 7.56% and the inhibition at 10 µM was 63.3%. On the same counts, the results for `CCC1CCCc2c1n(Cc1cccc(C#N)c1)c1c(C(=O)O)cccc21` (stereo not shown) [9-[(3-cyanophenyl)methyl]-1-ethyl-2,3,4,9-tetrahydro-1H-carbazole-8-carboxylic acid] are 44.2% and 87.6%. As for `N#Cc1cccc(Cn2c3c(c4cccc(C(=O)O)c42)CCC(CCc2ccccc2)C3)c1` (stereo not shown) [9-[(3-cyanophenyl)methyl]-2-(2-phenylethyl)-2,3,4,9-tetrahydro-1H-carbazole-8-carboxylic acid], the inhibition at 10 µM amounted to 92.3%. Consider `CCCCCCC1CCc2c(n(Cc3cccc(C#N)c3)c3c(C(=O)O)cccc23)C1` (stereo not shown) [9-[(3-cyanophenyl)methyl]-2-hexyl-2,3,4,9-tetrahydro-1H-carbazole-8-carboxylic acid], for which the inhibition at 1 µM came to 63.6% and the inhibition at 10 µM amounted to 83.4%. Turning to `CCCCCC1CCc2c(n(Cc3cccc(C#N)c3)c3c(C(=O)O)cccc23)C1` (stereo not shown) [9-[(3-cyanophenyl)methyl]-2-pentyl-2,3,4,9-tetrahydro-1H-carbazole-8-carboxylic acid], the inhibition at 1 µM was 60.8% and the inhibition at 10 µM was 77.1%. On to `CCCC1CCc2c(n(Cc3cccc(C#N)c3)c3c(C(=O)O)cccc23)C1` (stereo not shown) [9-[(3-cyanophenyl)methyl]-2-propyl-2,3,4,9-tetrahydro-1H-carbazole-8-carboxylic acid], for which the inhibition at 1 µM was 55.6% and the inhibition at 10 µM worked out at 81.4%. For `CCC1CCc2c(c3cccc(C(=O)O)c3n2Cc2cccc(C#N)c2)C1` (stereo not shown) [9-[(3-cyanophenyl)methyl]-3-ethyl-2,3,4,9-tetrahydro-1H-carbazole-8-carboxylic acid], the inhibition at 1 µM was determined as 45.8% and the inhibition at 10 µM was 90.3%. In the case of `CCCCCC1CCc2c(c3cccc(C(=O)O)c3n2Cc2cccc(C#N)c2)C1` (stereo not shown) [9-[(3-cyanophenyl)methyl]-3-pentyl-2,3,4,9-tetrahydro-1H-carbazole-8-carboxylic acid], the inhibition at 1 µM was 57.4% and the inhibition at 10 µM was 83.3%.

Consider `CCCC1CCc2c(c3cccc(C(=O)O)c3n2Cc2cccc(C#N)c2)C1` (stereo not shown) [9-[(3-cyanophenyl)methyl]-3-propyl-2,3,4,9-tetrahydro-1H-carbazole-8-carboxylic acid], for which the inhibition at 1 µM came to 46.8% and the inhibition at 10 µM was determined as 85.4%. For the molecule `N#Cc1cccc(Cn2c3c(c4cccc(C(=O)O)c42)C(CCc2ccccc2)CCC3)c1` (stereo not shown) [9-[(3-cyanophenyl)methyl]-4-(2-phenylethyl)-2,3,4,9-tetrahydro-1H-carbazole-8-carboxylic acid], the inhibition at 1 µM stood at 31% and the inhibition at 10 µM worked out at 53.4%.

Consider `CCCCCC1CCCc2c1c1cccc(C(=O)O)c1n2Cc1cccc(C#N)c1` (stereo not shown) [9-[(3-cyanophenyl)methyl]-4-pentyl-2,3,4,9-tetrahydro-1H-carbazole-8-carboxylic acid], for which the inhibition at 1 µM turned out to be 26.3% and the inhibition at 10 µM was 73.7%. For the molecule `CCCCCCC1CCc2c(n(Cc3ccc(C(N)=O)cc3)c3c(C(=O)O)cccc23)C1` (stereo not shown) [9-[(4-carbamoylphenyl)methyl]-2-hexyl-2,3,4,9-tetrahydro-1H-carbazole-8-carboxylic acid], the inhibition at 1 µM came to 87.3% and the inhibition at 10 µM is 89.3%. The like results for `CCCCCCC1CCc2c(n(Cc3ccc(C#N)cc3)c3c(C(=O)O)cccc23)C1` (stereo not shown) [9-[(4-cyanophenyl)methyl]-2-hexyl-2,3,4,9-tetrahydro-1H-carbazole-8-carboxylic acid] were, in that order, 39.7% and 78.9%. For the molecule `CCCCC1CCCCc2c1c1cccc(C(=O)O)c1n2Cc1cccc(C(N)=O)c1` (stereo not shown) [10-butyl-5-[(3-carbamoylphenyl)methyl]-5H,6H,7H,8H,9H,10H-cyclohepta[b]indole-4-carboxylic acid], the inhibition at 1 µM worked out at 63.3% and the inhibition at 10 µM was found to be 87.9%. Regarding `CCCCC1CCCCc2c1c1cccc(C(=O)O)c1n2Cc1cccc(C#N)c1` (stereo not shown) [10-butyl-5-[(3-cyanophenyl)methyl]-5H,6H,7H,8H,9H,10H-cyclohepta[b]indole-4-carboxylic acid], the inhibition at 1 µM stood at 30.9% and the inhibition at 10 µM came to 73.6%.
